Structures can show the parent of a compound that is named as a salt. Values belong to the compound of their own block, whether it stands above or below them.
What was measured:
[1] = biological target: T1, IRAK4 (Homo sapiens, UniProt Q9NWZ3); assay: Target protein degradation effect in K562 IRAK4-HiBiT cells (Nano-Glo HiBiT); assay type: cell-based; conditions: incubated 16 to 18 hours
T1 construct: expressed in transfected cells; host or cells: K562 IRAK4-HiBiT cells
T1 sequence (Q9NWZ3 1-460): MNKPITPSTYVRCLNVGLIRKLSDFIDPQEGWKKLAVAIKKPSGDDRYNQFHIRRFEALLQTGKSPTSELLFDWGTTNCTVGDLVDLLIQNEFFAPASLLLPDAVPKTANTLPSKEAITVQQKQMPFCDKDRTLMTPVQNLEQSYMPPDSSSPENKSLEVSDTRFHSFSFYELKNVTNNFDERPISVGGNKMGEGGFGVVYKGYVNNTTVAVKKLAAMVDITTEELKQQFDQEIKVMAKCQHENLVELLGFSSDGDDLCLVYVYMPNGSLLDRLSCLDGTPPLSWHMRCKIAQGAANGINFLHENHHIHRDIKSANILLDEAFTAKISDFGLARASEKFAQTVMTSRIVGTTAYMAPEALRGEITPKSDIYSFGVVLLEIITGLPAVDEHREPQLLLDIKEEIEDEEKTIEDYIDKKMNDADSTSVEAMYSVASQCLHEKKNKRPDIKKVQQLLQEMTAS
Protocol: Experimental purpose: In this experiment, the degradation effect of the test compound on the target protein IRAK4 in K562 IRAK4-HiBiT cells was detected.
• Cells: K562 IRAK4-HiBiT cells • Culture media: RPMI 1640+10% FBS+2 mM GlutaMax+1 mM sodium pyruvate+penicillin/streptomycin • Positive control: 1000 nM; negative control: 0.1% DMSO
• (1). The compound to be tested in powder form was dissolved in DMSO to 10 mM as a storage concentration, and 9 μL of the 10 mM compound to be tested was manually pipetted to column 1 and column 13 of an LDV plate using a pipette; • (2). 6 μL of DMSO was added to columns 2 to 12 and 14 to 24 using Multidrop Combi; [0688](3). the compound to be tested was 3-fold diluted (3 μL+6 μL) from columns 1 to 11 and 13 to 23 using Bravo; • (4). 25 nL of compound solution (columns 1 to 24 of the LDV plate) was transferred to an assay plate using Echo according to the plate layout; • (5). 25 nL of 1 mM positive control solution was transferred to the assay plate as a 100% degradation control (i.e., LC, HPE) and 25 nL of DMSO was transferred to the assay plate as a 0% control (i.e., HC, ZPE) using Echo.
• (1). The cell culture medium was discarded, and the cells were washed once with DPBS, digested with trypsin, and counted to prepare a cell suspension of […]; • (2). 25 µL/well of cell suspension was added to the assay plate containing the compound to be tested using Multidrop Combi at medium speed; • (3). the assay plate containing cells was returned to an incubator with 5% CO2 at 37° C. and incubated for 16 to 18 hours.
• (1). 25 µL/well of assay reagent (NanoGlo lysis buffer+substrate+LgBit protein) was added to the assay plate using Multidrop Combi at high speed, and the plate was shaken for 10 minutes; • (2). the plate was centrifuged at 2000 rpm for 1 minute to remove air bubbles; • (3). the plate was read on Envision using US Luminescence detection method.
The inhibition rate (IR) of the test compound was calculated using the following formula: IR (%)=(RLU vehicle control−RLU compound)/(RLU vehicle control−RLU positive control)×100%, and the vehicle control is the blank control. The inhibition rates of compounds at different concentrations were calculated in Excel, and then XLFit software was used to plot inhibition curves and calculate relevant parameters, including minimum inhibition rate, maximum inhibition rate, and DC50.

[2] = Pharmacokinetic evaluation in mice, experimental operation A (CD-1); assay type: in vivo; conditions: CD-1 mice; for bioavailability / clearance / Vd / half-life: male, mouse, plasma; for bioavailability: IV 1 mg/kg, PO 10 mg/kg, read-out: Bioavailability F; for Vd: read-out: Apparent volume of distribution; for half-life: read-out: Elimination half-life (converted)
Description: In this study, CD-1 or C57BL/6N male mice were selected as test animals, and LC/MS/MS method was used to quantify plasma concentrations of the test compound intravenously injected or intragastrically administered to mice at different time points, so as to evaluate the pharmacokinetic profile of the test drug in mice.
CD-1 mice (male, 20 to 35 g, 7 to 10 weeks old, Beijing Vital River) or C57BL/6N mice (male, 20 to 30 g, 7 to 10 weeks old, Beijing Vital River)
A clarified solution or suspension of the test compound was injected into CD-1 mice (overnight fasting) via the tail vein (vehicle: 10% DMSO/10% Solutol/80% H2O), or intragastrically administered into CD-1 mice (overnight fasting). For intravenous injection, blood was collected from the saphenous vein at 0 h (pre-administration) and 0.083 h, 0.25 h, 0.5 h, 1 h, 2 h, 4 h, 8 h, and 24 h after administration, and placed in an anticoagulant tube added with EDTA-K2. The mixture was thoroughly vortexed and mixed, and centrifuged at 3200 g for 10 minutes at 4° C. to obtain plasma. For oral administration, blood was collected from the saphenous vein at 0.25 h, 0.5 h, 1 h, 2 h, 4 h, 8 h, and 24 h after administration, and placed in an anticoagulant tube added with EDTA-K2 (Jiangsu Kangjian Medical Apparatus Co., Ltd.). The mixture was thoroughly vortexed and mixed, and centrifuged at 3200 g for 10 minutes at 4° C. to obtain plasma. Plasma concentrations were determined by LC-MS/MS method, and relevant pharmacokinetic parameters were calculated using Phoenix WinNonlin™ Version 6.3 (Pharsight, Mountain View, CA) pharmacokinetic software with non-compartmental model linear-log trapezoidal method.

[3] = Intragastric administration 10 mg/kg

DC50 [1]: 4.29 nM
Maximum inhibition rate [1]: 85.62%
Structure (SMILES): O=C1CCC(c2noc3ccc4c(NC(=O)CN5CCN(C[C@H]6CC[C@H](n7cc(NC(=O)c8cnn9ccc(N%10C[C@H]%11C[C@@H]%10CO%11)nc89)c(C(F)F)n7)CC6)CC5)cccc4c23)C(=O)N1 (stereo partly drawn) [Hydrochloride of WX014]

DC50 [1]: 34.2 nM
Maximum inhibition rate [1]: 112.11%
Structure (SMILES): O=C1CCC(c2coc3c(NC(=O)C(F)(F)C4CCN(C[C@H]5CC[C@H](n6cc(NC(=O)c7cnn8ccc(N9C[C@H]%10C[C@@H]9CO%10)nc78)c(C(F)F)n6)CC5)CC4)cccc23)C(=O)N1 (stereo partly drawn) [Hydrochloride of WX016]

DC50 [1]: 7.02 nM
Maximum inhibition rate [1]: 115.78%
Structure (SMILES): O=C1CCC(c2noc3c(NC(=O)C(F)(F)C4CCN(C[C@H]5CC[C@H](n6cc(NC(=O)c7cnn8ccc(N9C[C@H]%10C[C@@H]9CO%10)nc78)c(C(F)F)n6)CC5)CC4)cccc23)C(=O)N1 (stereo partly drawn) [Hydrochloride of WX017]

DC50 [1]: 5.43 nM
Maximum inhibition rate [1]: 100.80%
Structure (SMILES): O=C1CCC(c2noc3c(CCCN4CCN(C[C@H]5CC[C@H](n6cc(NC(=O)c7cnn8ccc(N9C[C@H]%10C[C@@H]9CO%10)nc78)c(C(F)F)n6)CC5)CC4)cccc23)C(=O)N1 (stereo partly drawn) [Hydrochloride of WX020]

DC50 [1]: 2.59 nM
Maximum inhibition rate [1]: 102.77%
Structure (SMILES): O=C1CCC(c2noc3c(NC(=O)CN4CCC(CN5CCC(n6cc(NC(=O)c7cnn8ccc(N9C[C@H]%10C[C@@H]9CO%10)nc78)c(C(F)F)n6)CC5)CC4)cccc23)C(=O)N1 (stereo partly drawn) [Hydrochloride of WX021]

DC50 [1]: 7.14 nM
Maximum inhibition rate [1]: 103.04%
Structure (SMILES): O=C1CCC(c2noc3c(CCCOC4CCN(C[C@H]5CC[C@H](n6cc(NC(=O)c7cnn8ccc(N9C[C@H]%10C[C@@H]9CO%10)nc78)c(C(F)F)n6)CC5)CC4)cccc23)C(=O)N1 (stereo partly drawn) [Hydrochloride of WX022]

DC50 [1]: 1.37 nM
Maximum inhibition rate [1]: 109.35%
Structure (SMILES): O=C1CCC(c2noc3c(NC(=O)CN4CCC(O[C@H]5CC[C@H](n6cc(NC(=O)c7cnn8ccc(N9C[C@H]%10C[C@@H]9CO%10)nc78)c(C(F)F)n6)CC5)CC4)cccc23)C(=O)N1 (stereo partly drawn) [WX024]

The remaining lines, values behind:

Structure (SMILES): O=C1CCC(c2noc3c(NC(=O)CN4CCN(C[C@H]5CC[C@H](n6cc(NC(=O)c7cnn8ccc(N9CC%10CCC(C9)O%10)nc78)c(C(F)F)n6)CC5)CC4)cccc23)C(=O)N1 (stereo partly drawn) [Formate of WX018]
DC50 [1]: 9.11 nM
Maximum inhibition rate [1]: 97.79%

Structure (SMILES): O=C1CCC(c2noc3c(CC(=O)NC4CCN(C[C@H]5CC[C@H](n6cc(NC(=O)c7cnn8ccc(N9C[C@H]%10C[C@@H]9CO%10)nc78)c(C(F)F)n6)CC5)CC4)cccc23)C(=O)N1 (stereo partly drawn) [Formate of WX023]
DC50 [1]: 2.55 nM
Maximum inhibition rate [1]: 103.01%

Structure (SMILES): O=C1CCC(c2coc3cc(NC(=O)CN4CCN(C[C@H]5CC[C@H](n6cc(NC(=O)c7cnn8ccc(N9C[C@H]%10C[C@@H]9CO%10)nc78)c(C(F)F)n6)CC5)CC4)ccc23)C(=O)N1 (stereo partly drawn) [Hydrochloride of WX002]
DC50 [1]: 24.3 nM
Maximum inhibition rate [1]: 56.72%

Structure (SMILES): O=C1CCC(c2coc3c(C#CCOC4CCN(C[C@H]5CC[C@H](n6cc(NC(=O)c7cnn8ccc(N9C[C@H]%10C[C@@H]9CO%10)nc78)c(C(F)F)n6)CC5)CC4)cccc23)C(=O)N1 (stereo partly drawn) [Hydrochloride of WX003]
Area under the drug-time curve (0-inf) [2, 3]: 4.83 µM·h
Peak concentration [2, 3]: 0.61 µM
Time to peak concentration [2, 3]: 4.0 h
Area under the drug-time curve (0-inf) ([2]; Intravenous injection 1 mg/kg): 1.72 µM·h
bioavailability [2]: 28.2%
clearance ([2]; Intravenous injection 1 mg/kg): 11.7 mL/min/kg
Vd ([2]; Intravenous injection 1 mg/kg): 1.71 L/kg
half-life ([2]; Intravenous injection 1 mg/kg): 1.74 h
DC50 [1]: 25.5 nM
Maximum inhibition rate [1]: 100.06%

Structure (SMILES): O=C1CCC(c2coc3c(NC(=O)CN4CCN(C[C@H]5CC[C@H](n6cc(NC(=O)c7cnn8ccc(N9C[C@H]%10C[C@@H]9CO%10)nc78)c(C(F)F)n6)CC5)CC4)cccc23)C(=O)N1 (stereo partly drawn) [Hydrochloride of WX006]
Area under the drug-time curve (0-inf) [2, 3]: 7.73 µM·h
Peak concentration [2, 3]: 1.73 µM
Time to peak concentration [2, 3]: 1.0 h
Area under the drug-time curve (0-inf) ([2]; Intravenous injection 1 mg/kg): 1.18 µM·h
bioavailability [2]: 65.6%
clearance ([2]; Intravenous injection 1 mg/kg): 16.8 mL/min/kg
Vd ([2]; Intravenous injection 1 mg/kg): 1.47 L/kg
half-life ([2]; Intravenous injection 1 mg/kg): 1.03 h
DC50 [1]: 12.9 nM
Maximum inhibition rate [1]: 97.11%

Structure (SMILES): O=C1CCC(c2coc3ccc4c(NC(=O)CN5CCN(C[C@H]6CC[C@H](n7cc(NC(=O)c8cnn9ccc(N%10C[C@H]%11C[C@@H]%10CO%11)nc89)c(C(F)F)n7)CC6)CC5)cccc4c23)C(=O)N1 (stereo partly drawn) [Hydrochloride of WX010]
DC50 [1]: 6.54 nM
Maximum inhibition rate [1]: 74.90%
